PubChem BioAssay AID977614 (Broad Institute, 2014)
The source made the active and inactive calls.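 How the source made its calls: active means parasite count per well reduced by over 3 SD from the mean, with host cell number above 80% of untreated; inactive means the rest.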

Tested on: L. donovani amastigotes in THP-1 macrophages, DAPI imaging, 72 h
Experiment: antileishmanial activity in infected macrophages – imaging, THP-1 host macrophages, single concentration (AID 977614);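 further: signal is the parasite per host cell ratio from DAPI stained kinetoplasts and nuclei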

| SMILES | AC50 |
| --- | --- |
| COc1ccccc1S(=O)(=O)N(C)C[C@@H]1OCc2cn(nn2)CCCC(=O)N([C@@H](C)CO)C[C@@H]1C | > 10 µM (inactive) |
| CC(=O)N1[C@@H](CO)[C@@H](c2ccccc2)[C@@H]1CNC(=O)CN1CCOCC1 | > 10 µM (inactive) |
| O=C(NC[C@H]1[C@H](c2ccccc2)[C@H](CO)N1C(=O)Cc1ccncc1)C1CCC1 | > 10 µM (inactive) |
| C[C@H](CO)N1C[C@H](C)[C@@H](CN(C)Cc2ccc3c(c2)OCCN3C)OCc2cnnn2CCCC1=O | > 10 µM (inactive) |
| CC(C)NC(=O)N1[C@@H]2CN(C)c3ccccc3[C@@H]2[C@@H]1CO | > 10 µM (inactive) |
| C[C@@H]1CN([C@H](C)CO)C(=O)CCCn2nncc2CO[C@H]1CN(C)C(=O)Nc1ccc(-c2cccs2)cc1 | > 10 µM (inactive) |
| CCC(=O)N1[C@H](CO)[C@H](c2ccccc2)[C@@H]1CN(CC)C(=O)c1cccc(F)c1 | > 10 µM (inactive) |
| O=C(Nc1ccccc1Cl)N1C[C@H]2[C@@H](c3ccccc31)[C@@H](CO)N2C(=O)c1cccnc1 | > 10 µM (inactive) |
| C[C@@H]1CN([C@@H](C)CO)C(=O)CCCn2cc(nn2)CO[C@H]1CN(C)C(=O)Nc1ccc2c(c1)OCO2 | > 10 µM (inactive) |
| COCC(=O)NC[C@@H]1[C@H](c2ccccc2)[C@H](CO)N1C(=O)c1ccccc1 | > 10 µM (inactive) |
| C[C@H]1CN([C@@H](C)CO)C(=O)CCCn2nncc2CO[C@@H]1CN(C)Cc1ccc2cccnc2c1 | > 10 µM (inactive) |
| C[C@H]1CN([C@@H](C)CO)C(=O)CCCn2nncc2CO[C@@H]1CN(C)C(=O)Nc1cccc(Oc2ccccn2)c1 | > 10 µM (inactive) |
| COCC(=O)N1[C@H](CO)[C@H]2c3ccccc3N(C)C[C@H]21 | > 10 µM (inactive) |
| O=C(NC[C@H]1[C@@H](c2ccccc2)[C@H](CO)N1Cc1cccnc1)c1ccccn1 | > 10 µM (inactive) |
| CCC(=O)N1[C@H](CO)[C@H](c2ccc(-c3cccc(OC)c3)cc2)[C@H]1CNC(C)=O | > 10 µM (inactive) |
| CCNC[C@@H]1[C@H](c2ccccc2)[C@H](CO)N1C(=O)Cc1ccccn1 | > 10 µM (inactive) |
| COc1ccc(C(=O)N2C[C@@H]3[C@H](c4ccccc42)[C@@H](CO)N3C(=O)Cc2ccccn2)cc1 | > 10 µM (inactive) |
| COc1ccc(NC(=O)N(C)C[C@H]2OCc3cnnn3CCCC(=O)N([C@@H](C)CO)C[C@@H]2C)c(OC)c1 | > 10 µM (inactive) |
| C[C@H](CO)N1C[C@H](C)[C@@H](CN(C)C(=O)Nc2ccnc(N3CCOCC3)c2)OCc2cnnn2CCCC1=O | > 10 µM (inactive) |
| COc1ccccc1CN1[C@@H](CO)[C@@H]2c3ccccc3N(C(=O)C3CCOCC3)C[C@@H]21 | > 10 µM (inactive) |
| CN(C[C@@H]1[C@H](c2ccccc2)[C@H](CO)N1Cc1ccccn1)S(C)(=O)=O | > 10 µM (inactive) |
| O=C(Nc1ccc(F)cc1)N1C[C@@H]2[C@H](c3ccccc31)[C@@H](CO)N2Cc1ccccc1Cl | > 10 µM (inactive) |
| CC(=O)N1[C@H](CO)[C@H](c2ccccc2)[C@@H]1CN(C)S(=O)(=O)c1ccccc1 | > 10 µM (inactive) |
| COc1ccccc1CN1[C@H](CO)[C@@H]2c3ccccc3N(C(=O)c3cccnc3)C[C@@H]21 | > 10 µM (inactive) |
| CN1[C@@H](CO)[C@@H]2c3ccccc3NC[C@@H]21 | > 10 µM (inactive) |
| CC(C)NC(=O)N1[C@H](CO)[C@@H]2c3ccccc3NC[C@@H]21 | > 10 µM (inactive) |
| C[C@@H]1CN([C@@H](C)CO)C(=O)CCCn2nncc2CO[C@H]1CN(C)C(=O)Nc1ccc(-c2cccs2)cc1 | > 10 µM (inactive) |

| SMILES | AC50 |
| --- | --- |
| C[C@@H]1CN([C@@H](C)CO)C(=O)CCCn2nncc2CO[C@H]1CN(C)Cc1cccc2c1OCCCO2 | > 10 µM (inactive) |
| COc1ccccc1NC(=O)N1C[C@@H]2[C@H](c3ccccc31)[C@H](CO)N2CC1CCOCC1 | > 10 µM (inactive) |
| CC(=O)N(Cc1cccc(F)c1)C[C@@H]1[C@@H](c2ccccc2)[C@@H](CO)N1C(C)=O | > 10 µM (inactive) |
| CCCC(=O)N1C[C@@H]2[C@H](c3ccccc31)[C@H](CO)N2C(=O)Nc1ccc(F)cc1 | > 10 µM (inactive) |
| CN1C[C@@H]2[C@H](c3ccccc31)[C@H](CO)N2C(=O)C1CCOCC1 | > 10 µM (inactive) |
| COCC(=O)NC[C@H]1[C@H](c2ccccc2)[C@@H](CO)N1C(=O)c1ccccc1 | > 10 µM (inactive) |
| O=C(Cc1cccnc1)N1[C@@H](CO)[C@@H](c2ccccc2)[C@@H]1CNCC1CCC1 | > 10 µM (inactive) |
| C[C@H](CO)N1C[C@H](C)[C@H](CN(C)C(=O)c2cc(-c3ccccc3)on2)OCc2cnnn2CCCC1=O | > 10 µM (inactive) |
| CC(=O)N1[C@@H](CO)[C@H](c2ccccc2)[C@@H]1CN(CC1CCC1)C(=O)CN(C)C | > 10 µM (inactive) |
| C[C@@H]1CN([C@H](C)CO)C(=O)CCCn2cc(nn2)CO[C@@H]1CN(C)C(=O)Nc1cccc2ccccc12 | > 10 µM (inactive) |
| CN1C[C@@H]2[C@H](c3ccccc31)[C@H](CO)N2Cc1ccccc1Cl | > 10 µM (inactive) |
| C[C@@H]1CN([C@@H](C)CO)C(=O)CCCn2nncc2CO[C@H]1CN(C)C(=O)Nc1cccc(Oc2ccccn2)c1 | > 10 µM (inactive) |
| CC(=O)N(CC1CCC1)C[C@H]1N[C@H](CO)[C@@H]1c1ccc(C2=CCCC2)cc1 | > 10 µM (inactive) |
| C[C@H]1CN([C@@H](C)CO)C(=O)CCCn2nncc2CO[C@@H]1CN(C)C(=O)Nc1ccccc1C(F)(F)F | > 10 µM (inactive) |
| OC[C@H]1N[C@@H](CNCC2CCC2)[C@@H]1c1ccc(C2=CCCCC2)cc1 | > 10 µM (inactive) |
| C[C@@H]1CN([C@H](C)CO)C(=O)CCCn2nncc2CO[C@@H]1CN(C)C(=O)Nc1ccc(-c2cccs2)cc1 | > 10 µM (inactive) |
| O=C(NC[C@@H]1[C@@H](c2ccccc2)[C@@H](CO)N1Cc1ccccn1)C1CCCC1 | > 10 µM (inactive) |
| COc1ccccc1S(=O)(=O)N(C)C[C@H]1OCc2cn(nn2)CCCC(=O)N([C@@H](C)CO)C[C@@H]1C | > 10 µM (inactive) |
| O=C(CN1CCOCC1)NC[C@H]1N[C@H](CO)[C@@H]1c1ccc(-c2ccccc2)cc1 | > 10 µM (inactive) |
| O=C(c1ccccn1)N1C[C@H]2[C@@H](c3ccccc31)[C@H](CO)N2C(=O)Nc1ccccc1Cl | > 10 µM (inactive) |
| C[C@H]1CN([C@@H](C)CO)C(=O)CCCn2nncc2CO[C@H]1CN(C)C(=O)CCC(F)(F)F | > 10 µM (inactive) |
| O=C(NC[C@@H]1[C@H](c2ccccc2)[C@H](CO)N1Cc1ccccn1)C1CCCC1 | > 10 µM (inactive) |
| O=C(c1ccccc1)N1C[C@H]2[C@@H](c3ccccc31)[C@@H](CO)N2Cc1ccccn1 | > 10 µM (inactive) |
| CN(C[C@H]1N[C@@H](CO)[C@@H]1c1ccc(C2=CCCC2)cc1)C(=O)c1cccc(F)c1 | > 10 µM (inactive) |
| O=C(Nc1ccc(F)cc1)N1C[C@H]2[C@@H](c3ccccc31)[C@H](CO)N2Cc1ccccc1Cl | > 10 µM (inactive) |
| O=C(c1ccccc1F)N1C[C@H]2[C@@H](c3ccccc31)[C@H](CO)N2Cc1ccc2c(c1)OCO2 | > 10 µM (inactive) |
| Cc1noc(C)c1NC(=O)N(C)C[C@H]1OCc2cn(nn2)CCCC(=O)N([C@H](C)CO)C[C@@H]1C | > 10 µM (inactive) |
